In PMC3857224, “Inhibition of DNA Glycosylases via Small Molecule Purine Analogs” (PLoS ONE, 2013):

What was measured:
NEIL1 [1] = target: T1, NEIL1 (Homo sapiens, UniProt Q96FI4); assay: gel-based incision assay of oligodeoxynucleotides containing site-specific base lesions; format: biochemical; details: polyacrylamide gel, reaction quenched at 20 min
T1 construct: made in house
Procedure: The 384-well fluorogenic assay was carried out in a 20 µL reaction mixture in 20 mM Tris-HCl pH 8.0, 100 mM KCl, and 0.1% BSA, with 5 nM active enzyme and 50 nM substrate. Possible inhibitors were incubated with the enzyme for at least 5 min at room temperature in a black, low-volume 384-well plate before addition of an equal volume of substrate to start the reaction. The plates were spun for 30 s at 1000 rcf to remove bubbles. The reactions were incubated at 37°C and fluorescence data collected on an Infinite M200 (Tecan, Mannedorf, Switzerland) equipped with standard optics (excitation filter 525 nm, and emission filter 598 nm). For the gel-based assay, reactions were initiated as described for the fluorogenic assay, but quenched with 20 µL 95% formamide at 20 min. The products were separated by electrophoresis through a 15% polyacrylamide gel containing 8 M urea and visualized by a Typhoon scanner (GE Life Sciences, Piscataway, NJ). The fraction of cleaved product was measured using ImageQuant software and analyzed using GraphPad Prism 6. […]

[2] = tested on: NEIL1, NTH1, OGG1 and FPG; assay: glycosylase/AP lyase cleavage assays with common substrates (Tg, 8-oxo-Gua) across glycosylases; format: biochemical, human; Escherichia coli (FPG); details: all enzymes except for NTH1
Procedure: The 384-well fluorogenic assay was carried out in a 20 µL reaction mixture in 20 mM Tris-HCl pH 8.0, 100 mM KCl, and 0.1% BSA, with 5 nM active enzyme and 50 nM substrate. Possible inhibitors were incubated with the enzyme for at least 5 min at room temperature in a black, low-volume 384-well plate before addition of an equal volume of substrate to start the reaction. The plates were spun for 30 s at 1000 rcf to remove bubbles. The reactions were incubated at 37°C and fluorescence data collected on an Infinite M200 (Tecan, Mannedorf, Switzerland) equipped with standard optics (excitation filter 525 nm, and emission filter 598 nm). For the gel-based assay, reactions were initiated as described for the fluorogenic assay, but quenched with 20 µL 95% formamide at 20 min. The products were separated by electrophoresis through a 15% polyacrylamide gel containing 8 M urea and visualized by a Typhoon scanner (GE Life Sciences, Piscataway, NJ). The fraction of cleaved product was measured using ImageQuant software and analyzed using GraphPad Prism 6.
In humans, several glycosylases, including OGG1, NTH1, NEIL2, and NEIL3 may participate in the removal of a wide variety of oxidized bases. […] To address this question, assays were designed to measure inhibition of OGG1 and NTH1, as well as the Escherichia coli glycosylase-AP lyase, FPG. […]

NEIL1 [3] = target: T1, NEIL1; assay: NEIL1 excision of FapyAde and FapyGua from γ-irradiated calf thymus DNA by GC-MS/MS; format: biochemical; details: 10 µL of 2 mM inhibitor in DMSO, 1 h 37°C
Procedure: The enzymatic activity of NEIL1 was measured using gas chromatography/isotope-dilution tandem mass spectrometry (GC-MS/MS) and calf thymus DNA samples γ-irradiated at 20 Gy as described, [30]. Aliquots of FapyAde-^13C,^15N2 and FapyGua-^13C,^15N2 were added as internal standards to 50 µg of DNA samples. After drying in a SpeedVac, DNA samples were dissolved in 50 µL of an incubation buffer consisting of 50 mM phosphate buffer (pH 7.4), 100 mM KCl, 1 mM EDTA, and 0.1 mM dithiothreitol, and then incubated with 2 µg NEIL1 for 1 h at 37°C without any inhibitor, DMSO alone, or with 10 µL of an inhibitor solution in DMSO (2 mM). After incubation, 150 µL of cold ethanol was added. The samples were kept at −20°C for 1 h and then centrifuged with 14,000 g for 30 min at 4°C. The supernatant fractions were separated and ethanol removed in a SpeedVac under vacuum. The samples were then frozen in liquid nitrogen and lyophilized overnight. To fully remove DMSO that would interfere with GC-MS/MS analysis, 500 µL water were added to the samples followed by lyophilization overnight. This procedure was repeated twice. Dried samples were derivatized and analyzed by GC-MS/MS as described, [30]. For each data point, three independently prepared samples were used.
Although Gh and Sp are excellent substrates for NEIL1, these are likely not to be the biologically relevant substrates. Thus, to determine if the compounds that were identified above were effective in the inhibition of NEIL1 against its biologically relevant substrates FapyAde and FapyGua, [6], γ-irradiated calf thymus DNA was used as a substrate. The excision by NEIL1 of these substrates from DNA was measured by GC-MS/MS with isotope-dilution. Figure 8 illustrates the excision of FapyAde and FapyGua by NEIL1 from γ-irradiated calf thymus DNA in the absence or presence of inhibitors. […] Some inhibition by DMSO alone was also observed when compared with excision by NEIL1 alone (p = 0.01). However, when compared to DMSO, the inhibitions by P2, P6, P7 and P8 were highly significant (p<0.005). […] A p-value<0.05 was assumed to correspond to statistical significance.

T1 sequence (Q96FI4 whole entry): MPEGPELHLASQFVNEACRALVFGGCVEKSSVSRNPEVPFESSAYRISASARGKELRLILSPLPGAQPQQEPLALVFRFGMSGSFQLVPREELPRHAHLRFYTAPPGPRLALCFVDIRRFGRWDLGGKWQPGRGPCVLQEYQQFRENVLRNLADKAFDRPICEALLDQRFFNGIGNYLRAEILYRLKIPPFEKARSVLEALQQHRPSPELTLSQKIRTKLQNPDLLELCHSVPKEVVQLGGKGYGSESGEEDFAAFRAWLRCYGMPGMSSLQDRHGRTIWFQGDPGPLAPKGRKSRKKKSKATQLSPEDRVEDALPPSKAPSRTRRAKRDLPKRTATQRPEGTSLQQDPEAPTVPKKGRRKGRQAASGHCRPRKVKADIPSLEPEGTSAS

## Cc1cc(/C=C/C#N)cc(C)c1Nc1nc(Nc2ccc3c(c2)OCO3)c2nc[nH]c2n1 [Purine P8]
NEIL1 [1]
  IC50: 15.2 µM
[2]
  relative inhibition among the compounds: poorest inhibition
NEIL1 [3]
  inhibition of NEIL1 excision of FapyAde and FapyGua: significantly reduced the activity of NEIL1

## Cc1cc(/C=C/C#N)cc(C)c1Nc1nc(Nc2ccc3scnc3c2)c2nc[nH]c2n1 [Purine P2]
NEIL1 [1]
  IC50: 28 µM
NEIL1 [3]
  inhibition of NEIL1 excision of FapyAde and FapyGua: significantly reduced the activity of NEIL1

## Cc1nc2ccc(Nc3nc(Nc4c(C)cc(/C=C/C#N)cc4C)nc4[nH]cnc34)cc2s1 [Purine P6]
NEIL1 [1]
  IC50: 9.2 µM
NEIL1 [3]
  inhibition of NEIL1 excision of FapyAde and FapyGua: significantly reduced the activity of NEIL1

## Cc1cc(/C=C/C#N)cc(C)c1Nc1nc(Nc2ccc3c(c2)CCC3)c2nc[nH]c2n1 [Purine P7]
NEIL1 [1]
  IC50: 11.7 µM
NEIL1 [3]
  inhibition of NEIL1 excision of FapyAde and FapyGua: significantly reduced the activity of NEIL1
